Patent US8293258B2, “Pesticide treatments made from hop extracts” (John I. Hass, Inc., priority 2000, dated 2012)

Experiments:
[1] = system: Erysiphe (=Uncinula) necator; assay: Grapevine powdery mildew control test (experimental vineyard); assay type: in vivo; details: standard control fungicide, concentration not given; percent of grape clusters that showed disease
Method: The grapevine powdery mildew organism is the fungus Erysiphe (=Uncinula) necator and the host plant is wine grape plant Vitis vinifera. Tests were conducted in an experimental vineyard near Pasco, Wash. Treatments were applied using an airblast sprayer at a volume of 100 gallons per acre. Disease inoculum was natural and had been the heaviest it has been in at least seven years. Plot size was five grape plants. Treatments were replicated four times and evaluations were made on September 4th. […] Percent severity is the portion of each grape cluster that was covered with symptoms.

[2] = system: predator mites Galendromus occidentalis and Neoseiulus fallacis; details: in vivo
From the text: Final concentrations of each component of the tank mix are: one-half percent liquid soap, one percent crop oil and one percent beta acids.
This mixture was applied to hop plants using a Windmill 400 gallon airblast sprayer. The mixture was applied to a one-acre test plot at the rate of 20 gallons per acre and to another one-acre plot at the rate of 100 gallons per acre. A total of five applications were made during the growing season. The first was made June 9th and the final on August 1st. Counts of live spider mites were made periodically during the season to monitor the effect of the product on the number of live mites. Simultaneously, the beneficial predator mites Galendromus occidentalis and Neoseiulus fallacis were counted to determine the effect of the product on these predator mites since these predator mites are useful in helping to reduce the numbers of twospotted spider mites.

Row | Molecule | Percent Incidence [1] | predator numbers [2] | predator numbers, highest reached [2]
1 | OC(c1ccc(Cl)cc1)(c1cncnc1)c1ccccc1Cl (stereo not drawn) [Standard Control, Fenarimol] | 71% |  | 
2 | Beta Acids |  | quite high | ≤ 12 per leaf
